Peptide text beside a SMILES is read from it.

For one test, the system named is mouse pancreatic islets. The experiment in a line: Static incubation of isolated pancreatic islets, insulin secretion. The class given is cell-based. On the procedure:
Static incubation of isolated pancreatic islets. Isolation of mouse pancreatic islets was accomplished using collagenase digestion as previously described (Pontoglio et al., 1998). […] Triplicate groups of 5 islets were then incubated in borosilicate tubes containing 1 ml of KRB with the same concentration of inhibitor and various insulin secretagogues for one hour in a moving water bath at 37° C. The reaction was stopped by placing the tubes on ice and an aliquot of the buffer was removed for measurement of insulin levels. Control studies, in which the incubation mixture contained vehicle (0.1% DMSO) only, were performed using aliquots of the same batch of islets
Assay methods. Insulin concentrations were measured by a double antibody radioimmunoassay using a rat insulin standard. The intra-assay coefficient of variation for this technique is 7%. All samples were assayed in duplicate.

The test system of a further test is β-cells. The experiment in a line: Whole-cell patch-clamp calcium currents in β-cells. Type of test: cell-based, mouse. On the procedure: Isolation of pancreatic β-cells. Single β-cells were obtained from isolated islets dispersed by gentle trituration (120 strokes through a 200 μl pipette tip) in Ca^2+ and Mg^2+-free PBS containing […]. Cells were plated on glass coverslips and maintained in culture in RPMI containing 11.6 mM glucose for 48-96 hr.
Patch-clamp electrophysiology. Calcium current measurements were obtained in the whole-cell patch-clamp configuration. Calcium currents were activated by step depolarizations to either +10 or +20 mV for either 20 ms or 100 ms, from HP=−80 mV. All current records are corrected for leak and capacitance. The data was filtered at 2 kHz and then sampled every 100 μs. Pipette resistances were 1.5-2.5 MΩ. Series resistance was partially compensated (˜80%) using the compensation circuit of the Axopatch-1C amplifier.
Cells were incubated for 3-4 hr in RPMI at 37° C. in either 0.1% DMSO (control) or 100 μM ALLM and then transferred for a further 1-2 hr to KRB containing similar concentrations of DMSO or ALLM. For recording, cells were bathed in a solution containing (in mM): 145 NaCl, 2 KCl, 1 MgCl2, 2 glucose, 10 HEPES, 10 CaCl2, pH 7.3 (adjusted with NaOH) and either DMSO or ALLM. […]
For orientation: Patch clamp records ionic current or voltage across a cell membrane.

The next test has as its system rat soleus muscle strips. The experiment in a line: 2-Deoxyglucose uptake into soleus muscle strips. The class given is cell-based. To be noted: 100 μM ALLM or 200 μM E-64-d. On the procedure:
2-Deoxyglucose uptake into skeletal muscle and adipose tissue. 2-deoxyglucose (2-DOG) uptake by isolated strips of soleus muscle from normal Wistar rats was measured using a modification of a previously described protocol (Burant et al., 1984). […] Muscles were then extracted and 2-DOG uptake calculated as previously described (Burant et al., 1984).

The next test concerns calpain. The experiment in a line: Calpain activity in mouse pancreatic islets (Boc-Leu-Met-CMAC cleavage). Type of test: cell-based.

For the compound `CSCC[C@@H](C=O)NC(=O)[C@H](CC(C)C)NC(=O)[C@H](CC(C)C)NC(C)=O` [ALLM, N-Ac-Leu-Leu-methioninal] (Ac-Leu-Leu-Met-aldehyde), the “insulin secretory response to 30 mM KCl” value in the test on mouse pancreatic islets (100 μM ALLM, 4 hr, 2 mM glucose) was “did not however significantly increase”. The “insulin secretory response to 100 μM carbachol (CCh)” value with mouse pancreatic islets (100 μM ALLM, 4 hr, 8 mM glucose) was “did not however significantly increase”. The “increase of insulin secretory response to 50 nM GLP-1” value in the test with mouse pancreatic islets (100 μM ALLM, 8 mM glucose) is 1.55±0.2 fold. In the test with mouse pancreatic islets (48-h treatment, then 2 days recovery without inhibitor), the “insulin secretory response to 20 mM glucose after recovery” value was “essentially normal insulin secretory response”. Moreover, in the test with mouse pancreatic islets (4 hr exposure, ALLM 250 μM, E-64-d 200 μM, 2 mM glucose), the “effect on insulin secretion at 2 mM glucose” value was “not observed”. The “increase of insulin secretory response to 20 mM glucose” value in the test on mouse pancreatic islets (4 hr exposure, ALLM 250 μM, E-64-d 200 μM, 20 mM glucose, mean±SEM) worked out at 1.97±0.3 fold. Besides, the “inhibition of 20 mM glucose-stimulated insulin secretion” value with mouse pancreatic islets (48 h, 100 μM ALLM (so in the source), 50 μM MDL28170) came out at 88±9%. In addition, in the test on mouse pancreatic islets (48 hours exposure), the “basal insulin secretion (2 mM glucose) vs control-treated islets” value was “no significant difference”. Further, in the test with mouse pancreatic islets (48 h treated islets), the “insulin secretory response to carbachol” value is “attenuated”, the “insulin secretory response to glyceraldehyde” value was “responded normally”, the “insulin secretory response to mastoparan” value is on record as “attenuated” and the “insulin-secretory response to keto-isocaproic acid (KIC)” value is recorded as “decreased”. Also, in the test on mouse pancreatic islets (isolated mouse islets, introductory summary, no conditions given), the “insulin secretory responses to glucose (summary statement of Example 8)” value is on record as “reduces insulin secretory responses”. The “concentration at which inhibition of insulin secretion was achieved (dose response)” value in the test on mouse pancreatic islets (long-term exposure, glucose stimulated insulin secretion) amounted to 25 µM. In addition, the “average peak calcium current density” value with β-cells (ALLM 100 μM pre-treated cells, n=15) was found to be 36.7±3.9 pA/pF. In addition, the whole-cell calcium currents result with β-cells (ALLM 100 μM pre-treated vs control cells) is “similar”. The “2-deoxyglucose uptake into soleus muscle strips with insulin” value in the test on rat soleus muscle strips (insulin 12 nM) is recorded as 0.34±0.05 (mol/ml H20/30 mins. Moreover, the “2-deoxyglucose uptake into soleus muscle strips without insulin” value with rat soleus muscle strips (no insulin) is 0.28±0.04 (mol/ml H20/30 mins. In addition, the “area under the curve of rate of generation of fluorescent calpain product” value with calpain (200 μM inhibitor, 4 hr incubation) is 35±4 % of control values. Besides, the “residual calpain activity in intact islets” value with calpain (48 h treatment, 100 μM ALLM or 200 μM E-64-d) is 54±3 % of control treated islets.
